Reference: ChEMBL document CHEMBL4837181 (Eur J Med Chem, 2020)
Where a SMILES comes first, the peptide text is derived from it. [ ]: non-standard residue; d: D form. dTrp(1-Me) = Cn1cc(C[C@@H](N)C(=O)O)c2ccccc21

What was measured:
[1] = Stability in mouse plasma assessed as parent compound remaining measured after 2 hrs by LC-MS/MS analysis; type: ADME, cell-free; details: read-out: Stabilty
[2] = Change in normalised Cmax in rat at 50 mg/kg, po measured upto 72 hrs by LC-MS/MS analysis; type: ADME, organism-based; details: in vivo
[3] = Dose normalized Cmax in rat at 50 mg/kg, po measured upto 72 hrs by LC-MS/MS analysis; type: ADME, organism-based; details: in vivo
[4] = Stability in rat plasma assessed as parent compound remaining measured after 2 hrs by LC-MS/MS analysis; type: ADME, cell-free; details: read-out: Stabilty
[5] = Change in normalised AUC (infinity) in rat at 50 mg/kg, po measured upto 72 hrs by LC-MS/MS analysis; type: ADME, organism-based; details: in vivo
[6] = Dose normalized AUC (0 to infinity) in rat at 50 mg/kg, po measured upto 72 hrs by LC-MS/MS analysis; type: ADME, organism-based; details: in vivo
[7] = Chemical stability of compound in saline assessed as compound remaining at 5 uM measured after 24 hrs by LC-MS/MS analysis; type: physicochemical; details: read-out: Stabilty
[8] = Chemical stability of compound in PBS buffer assessed as compound remaining at pH 7.4 at 5 uM measured after 24 hrs by LC-MS/MS analysis; type: physicochemical; details: read-out: Stabilty
[9] = Chemical stability of compound in 0.1 N aqueous HCl buffer assessed as compound remaining at pH 1 at 5 uM measured after 1.5 hrs by LC-MS/MS analysis; type: physicochemical; details: pH 1, 1.5 h
[10] = Dose normalized AUC (0 to infinity) in rat at 10 mg/kg, po measured upto 72 hrs by LC-MS/MS analysis; type: ADME, organism-based; details: in vivo
[11] = Chemical stability of compound in 0.1 N aqueous HCl buffer assessed as compound remaining at pH 1 at 5 uM measured after 24 hrs by LC-MS/MS analysis; type: physicochemical; details: pH 1, 24 h
[12] = Chemical stability of compound in PBS buffer assessed as compound remaining at pH 7.4 at 5 uM measured after 6 hrs by LC-MS/MS analysis; type: physicochemical; details: read-out: Stabilty
[13] = Chemical stability of compound in simulated intestinal fluid assessed as compound remaining at 5 uM measured after 3 hrs by LC-MS/MS analysis; type: ADME, physicochemical; details: read-out: Stabilty
[14] = Change in normalised AUCinfinity in rat at 10 mg/kg, po measured upto 72 hrs by LC-MS/MS analysis; type: ADME, organism-based; details: in vivo
[15] = Chemical stability of compound in simulated intestinal fluid assessed as compound remaining at 5 uM measured after 24 hrs by LC-MS/MS analysis; type: ADME, physicochemical; details: read-out: Stabilty
[16] = Chemical stability of compound in simulated gastric fluid assessed as compound remaining at 5 uM measured after 24 hrs by LC-MS/MS analysis; type: ADME, physicochemical; details: read-out: Stabilty
[17] = Change in normalised Cmax in rat at 10 mg/kg, po measured upto 72 hrs by LC-MS/MS analysis; type: ADME, organism-based; details: in vivo
[18] = Stability in human plasma assessed as parent compound remaining measured after 24 hrs by LC-MS/MS analysis; type: ADME, cell-free; details: read-out: Stabilty
[19] = Dose normalized Cmax in rat at 10 mg/kg, po measured upto 72 hrs by LC-MS/MS analysis; type: ADME, organism-based; details: in vivo
[20] = Stability in human plasma assessed as parent compound remaining measured after 6 hrs by LC-MS/MS analysis; type: ADME, cell-free; details: read-out: Stabilty
[21] = Chemical stability of compound in simulated gastric fluid assessed as compound remaining at 5 uM measured after 1.5 hrs by LC-MS/MS analysis; type: ADME, physicochemical; details: read-out: Stabilty
[22] = Change in AUC (infinity) in rat at 37 umol/kg, po measured upto 72 hrs by LC-MS/MS analysis; type: ADME, organism-based; details: in vivo, at 37 µmol/kg
[23] = Change in Cmax in rat at 37 umol/kg, po measured upto 72 hrs by LC-MS/MS analysis; type: ADME, organism-based; details: in vivo, at 37 µmol/kg

remaining at 2 h [1]	remaining at 2 h [4]	remaining at 24 h, 5 µM [7]	remaining at 24 h, 5 µM [8]	Stabilty [9]	AUC/dose [10]	Stabilty [11]	remaining at 6 h, 5 µM [12]	remaining at 3 h, 5 µM [13]	Activity [14]	remaining at 24 h, 5 µM [15]	remaining at 24 h, 5 µM [16]	Activity [17]	remaining at 24 h [18]	Cmax/dose [19]	remaining at 6 h [20]	remaining at 1.5 h, 5 µM [21]	Activity [22]	Activity [23]	SMILES	also measured
97%	100%	–	–	–	–	–	–	–	–	–	–	–	–	–	–	–	–	–	CCOC(=O)N[C@H](Cc1cn(C)c2ccccc12)C(=O)O	Activity [2]: -78%; Cmax/dose [3]: 6 µM; Activity [5]: -83%; AUC/dose [6]: 229 µM·h
0%	0%	85%	17%	73%	806 µM·h	85%	67%	70%	58%	1%	88%	41%	0%	24.4 µM	23%	108%	-1%	12%	CCOC(=O)[C@@H](Cc1cn(C)c2ccccc12)NC(=O)[C@@H](N)CCC(N)=O.Cl	–
100%	56%	99%	65%	64%	599 µM·h	99%	83%	64%	18%	38%	78%	62%	68%	28 µM	78%	80%	1%	10%	Cl.Cn1cc(C[C@@H](NC(=O)CN)C(=O)O)c2ccccc21 (H-Gly-[dTrp(1-Me)]-OH)	–
77%	95%	100%	57%	89%	795 µM·h	100%	93%	96%	56%	96%	92%	-3%	78%	16.7 µM	96%	97%	-10%	8%	Cl.Cn1cc(C[C@@H](NC(=O)[C@@H](N)CCCCN)C(=O)O)c2ccccc21	–
0%	0%	99%	29%	37%	595 µM·h	99%	50%	34%	17%	10%	58%	92%	11%	33.3 µM	33%	62%	21%	28%	Cl.Cn1cc(C[C@@H](N)C(=O)OCC(O)CO)c2ccccc21 (stereo partly specified)	–
49%	100%	78%	74%	65%	372 µM·h	78%	100%	53%	-27%	0%	83%	-51%	83%	8.5 µM	93%	83%	–	–	Cl.Cn1cc(C[C@@H](NC(=O)[C@@H](N)CCC(N)=O)C(=O)O)c2ccccc21	–
80%	84%	70%	0%	10%	588 µM·h	70%	0%	0%	16%	0%	56%	-23%	0%	13.3 µM	0%	56%	–	–	Cl.Cn1cc(C[C@@H](N)C(=O)OCC(N)C(=O)O)c2ccccc21 (single isomer, unassigned)	–
0%	0%	90%	96%	99%	329 µM·h	90%	96%	65%	-35%	0%	86%	-54%	11%	7.9 µM	68%	89%	–	–	CCOC(=O)[C@@H](Cc1cn(C)c2ccccc12)NC(=O)[C@@H](N)Cc1ccccc1.Cl	–
88%	100%	99%	95%	92%	617 µM·h	99%	95%	66%	21%	0%	97%	41%	82%	24.4 µM	87%	95%	–	–	CC(C)C[C@H](N)C(=O)N[C@H](Cc1cn(C)c2ccccc12)C(=O)O.Cl	–
100%	100%	–	–	–	–	–	–	–	–	–	–	–	–	–	–	–	–	–	Cn1cc(C[C@@H](NC(=O)OCC(C)(C)C)C(=O)O)c2ccccc21	Activity [2]: -99%; Cmax/dose [3]: 0.15 µM; Activity [5]: -100%; AUC/dose [6]: 5.5 µM·h
65%	80%	91%	34%	45%	262 µM·h	91%	100%	81%	-48%	77%	49%	-83%	82%	3 µM	92%	63%	–	–	Cl.Cn1cc(C[C@@H](N)C(=O)N[C@H](Cc2cn(C)c3ccccc23)C(=O)O)c2ccccc21	–
0%	19%	23%	12%	36%	889 µM·h	23%	92%	45%	75%	3%	73%	24%	2%	21.5 µM	44%	75%	-54%	-69%	Cl.Cn1cc(C[C@@H](N)C(=O)OCC2CCNCC2)c2ccccc21	–
100%	100%	91%	60%	99%	574 µM·h	91%	81%	88%	13%	85%	88%	2%	86%	17.6 µM	90%	90%	–	–	Cl.Cn1cc(C[C@@H](NC(=O)[C@@H](N)CCC(=O)O)C(=O)O)c2ccccc21	–
82%	79%	87%	45%	53%	182 µM·h	87%	81%	53%	-64%	51%	48%	-82%	32%	3.2 µM	77%	51%	–	–	Cl.Cn1cc(C[C@@H](NC(=O)[C@H](N)Cc2c[nH]c3ccccc23)C(=O)O)c2ccccc21	–
